The values that follow come from patent publication US20250136555A1 (HARBIN MEDISAN PHARMACEUTICAL CO., LTD., priority 2022, published 2025).

Like-named read-outs stand apart in the source and are kept apart here.

The term EC50 denotes the concentration giving half of the maximal effect. A high value points to a less potent agent. Usually CLint scaled stands for the rate of metabolic loss divided by the concentration. A lower CLint scaled goes with greater metabolic stability. A word on the half-life: it is how long it takes for the measured level to halve. Lower therefore signals rapid decline.

The conditions of data set [1]: NCT02704403; cited from earlier work.
A further data set concerns the target T1, PPARα (Homo sapiens, UniProt Q07869).
T1 construct: expressed in transfected cells; host or cells: COS-7
T1 sequence (Q07869 239-466 limits assumed): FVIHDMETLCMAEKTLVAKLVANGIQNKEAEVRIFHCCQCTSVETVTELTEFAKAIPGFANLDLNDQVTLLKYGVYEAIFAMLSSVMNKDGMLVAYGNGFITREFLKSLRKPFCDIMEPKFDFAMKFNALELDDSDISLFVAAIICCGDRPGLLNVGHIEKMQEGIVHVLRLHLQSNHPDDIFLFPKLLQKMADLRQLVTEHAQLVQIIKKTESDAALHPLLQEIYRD
Nature of the data set: GAL4 hybrid reporter gene method, PPARα agonistic activity. The class given is cell-based. To be noted: Cos-7 cells, Gal4-PPARα (LBD); GW7647 10 nM = 100%; 16 h. On the technique in general: In a reporter assay the amount or activity of a reporter protein is the signal.

The target of the next data set is T2, PPARγ (Homo sapiens, UniProt P37231).
T2 construct: expressed in transfected cells; host or cells: COS-7
T2 sequence (P37231 238-503 limits assumed): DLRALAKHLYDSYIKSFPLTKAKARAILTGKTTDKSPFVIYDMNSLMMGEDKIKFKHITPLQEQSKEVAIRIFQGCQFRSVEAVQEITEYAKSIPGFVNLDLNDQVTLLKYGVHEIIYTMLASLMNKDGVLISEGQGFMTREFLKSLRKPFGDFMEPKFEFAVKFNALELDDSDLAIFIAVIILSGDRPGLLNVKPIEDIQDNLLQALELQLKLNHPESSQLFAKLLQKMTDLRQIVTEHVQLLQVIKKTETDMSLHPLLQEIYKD
The data set is described as follows: GAL4 hybrid reporter gene method, PPARγ agonistic activity. The class given is cell-based.

The nature of data set [2]: Metabolic stability in human liver microsomes. The class given is in vitro ADME. Conditions: human liver microsomes 0.75 mg/mL, NADPH. On the procedure: A solution of the compound in acetonitrile at a concentration of 500 μM was prepared and diluted in 0.1 M potassium phosphate solution to obtain a 1.5 μM drug working solution. The drug working solution was co-incubated with a human liver microsome working solution at a final concentration of 0.75 mg/mL and a NADPH solution (at a final concentration of 550 μM), and the incubation was terminated by adding an acetonitrile solution at 0 min, 15 min, 30 min, 45 min, and 60 min, respectively. The remaining amount of the compound remained in the system at each time point was detected by using LC/MS, the absolute value k of the slope was measured by plotting the natural logarithm of the percentage of the remaining amount of the compound over time, and the calculation was performed according to the formula: T1/2 (half-life)=ln2/k=0.693/k.

The target in another data set is T3, PPARδ (Homo sapiens, UniProt Q03181).
T3 construct: expressed in transfected cells; host or cells: COS-7
T3 sequence (Q03181 211-439 limits assumed): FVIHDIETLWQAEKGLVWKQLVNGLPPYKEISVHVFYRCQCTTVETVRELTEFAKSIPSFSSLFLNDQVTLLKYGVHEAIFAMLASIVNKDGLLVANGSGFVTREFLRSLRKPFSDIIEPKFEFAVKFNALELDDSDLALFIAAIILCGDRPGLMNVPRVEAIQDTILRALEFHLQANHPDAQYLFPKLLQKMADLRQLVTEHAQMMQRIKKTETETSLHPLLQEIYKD
Nature of the data set: GAL4 hybrid reporter gene method, PPARδ agonistic activity. The class given is cell-based.

Procedure for PPARα: (§1) Cos-7 cells (African green monkey kidney fibroblasts, commonly used tool cells) were cultured in a 10-cm cell culture dish with a DMEM complete medium containing 10% fetal bovine serum. When growing at a density of about 70%, the cells were ready for transfection. […] The working solution described above was then combined with 8 mL of the DMEM complete medium, and the mixture was added to the cell culture dish for cell transfection. After 4 h of transfection, the cells were digested, resuspended, and seeded into a 96-well plate at 25,000 cells/well. […] 10 μL of a reporter gene detection solution (purchased from Shanghai Beyotime Biological Tech. Co., Ltd.) was added. After the resulting solution was mixed and reacted, biological fluorescence was detected by using a multifunctional microplate reader, and corresponding half maximal effective concentration (EC50) values were calculated according to the detection values. […] Transfection working solutions for different nuclear receptors were prepared and added into COS-7 cells. The preparation method for the transfection working solution was as follows: the constructed pBIND-Gal4-PPARα (LBD) (or pBIND-Gal4-PPARδ (LBD) plasmid or pBIND-Gal4-PPARγ (LBD) plasmid or pBIND-Gal4-RARα (LBD) plasmid or pBIND-Gal4-RARγ (LBD) plasmid or pBIND-Gal4-RARβ (LBD) plasmid or pBIND-Gal4-RORα (LBD) plasmid or pBIND-Gal4-RORγ (LBD) plasmid or pBIND-Gal4-RORβ (LBD) plasmid or pBIND-Gal4-FXR (LBD) plasmid or pBIND-Gal4-RXRα.
Procedure for PPARγ: as §1
Procedure for PPARδ: as §1

Regarding `CSc1ccc(C(=O)/C=C/c2cc(C)c(OC(C)(C)C(=O)O)c(C)c2)cc1` [GFT505, Elafibranor, reference compound], the “interim analysis result of phase III clinical trial against NASH” value in data set [1] was “substantially ineffective”. The half-maximal effective concentration (EC50) on PPARα worked out at 820 nM; on PPARγ (Cos-7 cells, Gal4-PPARγ (LBD), Rosiglitazone 1 μM = 100%, 16 h), 1840 nM. Moreover, in data set [2], the CLint scaled was determined as 116 mL/min/kg. For the same compound, the half-life in data set [2] came out at 15 min.
Regarding `CC(C)(Oc1ccc(CN2C(=O)CN(c3ccc(C(F)(F)F)cc3)C2=O)cc1Br)C(=O)O` [Compound 77, 2-(2-Bromo-4-((2,5-dioxo-3-(4-trifluoromethyl)phenyl)imidazolidin-1-yl)methylphenoxy)-2-methylpropionic Acid], the figures for the EC50 at PPARδ, at PPARα and on PPARγ were 25.3 nM, 74.1 nM and 3190 nM, respectively.
On the same counts, the results for `Cc1cc(CN2C(=O)CN(c3cccc(F)c3)C2=O)cc(C)c1OC(C)(C)C(=O)O` [Compound 103] are 97.6 nM, 102 nM and 474 nM.
For `COc1cc(CN2C(=O)CN(c3ccc(C(F)(F)F)cc3)C2=O)cc(Cl)c1OC(C)(C)C(=O)O` [Compound 73, 2-(2-Chloro-4-((2,5-dioxo-3-(4-(trifluoromethyl)phenyl)imidazolin-1-yl)methyl)-6-methoxyphenoxy)-2-methylpropionic Acid], in that order: 31 nM, 2.4 nM and 2120 nM.
As for `CC(C)(Oc1c(F)cc(CN2C(=O)CN(c3ccc(C(F)(F)F)cc3)C2=O)cc1Cl)C(=O)O` [Compound 47, 2-(2-Chloro-4-((2,5-dioxo-3-(4-(trifluoromethyl)phenyl)imidazolin-1-yl)methyl)-6-fluorophenoxy)-2-methylpropionic Acid], the EC50 at PPARδ is 19 nM; at PPARα it was 9.9 nM; at PPARγ, above 5000 nM.
On the same counts, the results for `Cc1cc(CN2C(=O)CN(c3ccc(C(F)(F)F)cc3)C2=O)ccc1OCC(=O)O` [Compound 9, 2-(4-((2,5-Dioxo-3-(4-(trifluoromethyl)phenyl)imidazolidin-1-yl)methyl)-2-methylphenoxy)acetic Acid] are 976 nM, 994 nM and above 5000 nM.
`CC(C)(Oc1ccc(CN2C(=O)CN(c3ccc(C(F)(F)F)cc3)C2=O)cc1Cl)C(=O)O` [Compound 51, 2-(4-((2,5-Dioxo-3-(4-(trifluoromethyl)phenyl)imidazolin-1-yl)methyl)-2-chlorophenoxy)-2-methylpropionic Acid]: the EC50 was 40.1 nM on PPARδ, 89.9 nM at PPARα and above 5000 nM at PPARγ.
